Laboratory results reported in US4599352A, “Antineoplastic platinum (IV) complexes and compositions” (priority 1984, dated 1986).

What was measured:
[1] = tested on: IP-Implanted L1210/Cisplatin; assay: Comparison of isomers: long term survivors and weight differences in treating IP-implanted L1210/Cisplatin (Table 6); assay type: in vivo, mice
Text: Comparative data for the others are as follows: 27 for trans d, 27 for trans d l and 13 for cis. […] The higher the ratio the more convenient it is to prepare a formulation for intravenous administration to patients which is shown in Table 7.

[2] = tested on: bacteriophage lambda (lambda-lac Z fusion prophage); assay: Biochemical phage induction assay (BIA), induction of bacteriophage lambda (FIG. 1); assay type: cell-based, E. coli (BR 513)
Method: The platinum complexes are tested using the BIA quantitative tube assay for dose-dependent induction of bacteriophage lambda according to a previously published procedure of Sarma, D. et al. Chem. Biol. Interactions, 46: 219-232 (1983), which is incorporated herein by reference. A permeable strain of E. coli (BR 513) containing lambda phage is used to test all samples. Expression time for the assay is 5 hours at 38° C. Fresh dilutions of test samples are made in saline (0.85%) on the day of the experiment. Samples are made at 10×final concentration and dispensed according to assay procedure. Final concentrations are 300 μg/ml, 200 μg/ml, 100 μg/ml, 60 μg/ml, 25 μg/ml, 10 μg/ml and a zero control.
This strain of bacteria contains a chromosomally integrated lambda-lac Z fusion phage under control of the lambda repressor. Treatment with DNA-damaging agents leads to derepression of prophage and synthesis of β-galacto-sidase, product of the lac Z gene. β-galactosidase is detected by reaction with a substrate (O-nitrophenyl-D-galactopyranoside (ONPG)) to give a yellow-colored product. Tubes are incubated at 28° C. (a few minutes to several hours to an A420 ≈0.5-1.0). Color development is stopped by the addition of base (1M Na2 CO3), and the yellow color is measured by absorbance at 420 nm. The exact time required for color development is recorded. Enzyme Units=100 A420 /thr where A420 =absorbance at 420 nm; thr =time required to develop yellow color in hours. One enzyme unit is the approximate value of an uninduced control tube at zero time.
This assay detects a wide variety of compounds which interact with DNA. […] This finding may support the hypothesis that platinum IV complexes are chemically less reactive. However, in vivo there is evidence that platinum IV complexes may be reduced to platinum (II) complexes [Pendyala, L. Proceedings 13th International Cancer Congress, Seatle, Wash., #3034, page 531, (1982)]. […] It is noted that the four isomers are not equal in their ability to induce the prophage.

[3] = tested on: L1210 and L1210/Cisplatin leukemia; assay: Total number of long-term survivors in Tables 2-4; assay type: in vivo, CD2Fl mice; settings: for Total number of long-term survivors: Tables 2-4 summed
Text: If one summarizes the data in Tables 2-4 by totalling the number of long-term survivors, unexpected differences among the isomers become apparent. For example, the trans l compound produced 30 long-term survivors.

[4] = Comparative water solubilities of platinum complexes (Table 7)
[5] = Solubility of platinum complexes (Table I and preparation examples); assay type: physicochemical

Row | Compound | Total Grams of Weight Difference [1] [Grams] | Total number of long-term survivors [1] | Effectiveness in inducing prophage [2] | Prophage induction, enzyme units [2] | Total number of long-term survivors [3] | Concentration of optimal effect in prophage induction [2] [µg/mL] | Water Solubility ([4]; Table 7) | Water Solubility mg/L / Mouse Optimal Dose (mg/kg) ([4]; ratio of water solubility to mouse optimal dose) | Ratio of 2/1 (weight difference / long-term survivors) [1] | Solubility in DMF ([5]; DMF) [mg/mL] | Solubility in methanol ([5]; methanol) [mg/mL] | Solubility in methanol-acetone ([5]; methanol-acetone (1:1)) [mg/mL] | Solubility in water ([5]; water) [mg/mL] | Relative biological activity ([3]; mouse, in vivo)
1 | [Cl][Pt]1([Cl])([Cl])([Cl])[NH]C2CCCCC2[NH]1 (stereo not drawn) [trans (d, l), (d,l)-Tetrachloro-trans-1,2-cyclohexanediamine platinum (IV)] | -10.0 | 12 | intermediate in effectiveness | about 68 enzyme units | 27 | – | – | – | – | – | – | – | – | –
2 | [Cl][Pt-2]1([Cl])([Cl])([Cl])[NH2+][C@H]2CCCC[C@@H]2[NH2+]1 [trans (d), (1S, 2S)-Tetrachloro-trans-1,2-cyclohexanediamine platinum (IV)] | -11.9 | 11 | most effective inducers among the four | about 104 enzyme units | 27 | 25 | – | – | – | – | – | – | – | –
3 | [Cl][Pt-2]1([Cl])([Cl])([Cl])[NH2+][C@@H]2CCCC[C@H]2[NH2+]1 [trans (l), (1R,2R)-Tetrachloro-trans-1,2-cyclohexanediammine platinum (IV)] | -6.0 | 17 | most effective inducers among the four | about 104 enzyme units | 30 | 50 | – | – | – | – | – | – | – | –
4 | Tetrachloro-cis-1,2-cyclohexanediamine platinum (IV) | -5.6 | 4 | practically inert | – | 13 | – | 2,000 mg/L | 250 mg/L / (mg/kg) | 1.40 | 250 | 50 | 200 | < 10 | relatively lower biological activity
